Activity calls are given as the source filed them. No cut-off for these calls is given here.

Holding throughout (type): cell-based
In data set [1] the target is T1, Glucocorticoid receptor (Homo sapiens) (UniProt P04150).
T1 sequence (whole entry): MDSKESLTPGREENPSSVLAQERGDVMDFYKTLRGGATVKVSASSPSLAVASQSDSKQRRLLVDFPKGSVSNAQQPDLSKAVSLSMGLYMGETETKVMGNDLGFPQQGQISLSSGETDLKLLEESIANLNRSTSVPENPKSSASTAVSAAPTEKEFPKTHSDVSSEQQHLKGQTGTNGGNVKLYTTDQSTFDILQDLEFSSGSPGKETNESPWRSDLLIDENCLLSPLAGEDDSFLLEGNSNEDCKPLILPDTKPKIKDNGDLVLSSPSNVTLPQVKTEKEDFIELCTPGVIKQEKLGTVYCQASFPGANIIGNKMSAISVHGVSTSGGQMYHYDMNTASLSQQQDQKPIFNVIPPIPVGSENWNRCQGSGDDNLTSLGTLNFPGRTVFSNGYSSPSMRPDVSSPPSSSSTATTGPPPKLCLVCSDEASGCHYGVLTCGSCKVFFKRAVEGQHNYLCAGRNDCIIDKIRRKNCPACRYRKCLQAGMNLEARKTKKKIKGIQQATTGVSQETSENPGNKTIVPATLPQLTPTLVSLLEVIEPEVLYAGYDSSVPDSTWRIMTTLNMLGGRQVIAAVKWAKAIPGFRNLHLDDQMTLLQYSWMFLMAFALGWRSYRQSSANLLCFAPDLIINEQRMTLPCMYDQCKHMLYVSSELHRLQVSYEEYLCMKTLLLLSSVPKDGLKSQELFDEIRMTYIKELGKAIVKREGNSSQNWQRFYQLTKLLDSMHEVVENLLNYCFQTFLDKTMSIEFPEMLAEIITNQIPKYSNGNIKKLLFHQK
Description: Inhibition of glucocorticoid receptor-glucocorticoid complex transfected in rat R1 cells assessed as down-regulation of TPA-responsive element proinflammatory gene expression at 100 uM after 24 hrs by beta-galactosidase assay. More on the design: scale not given: the % may be the effect or the level left.

In data set [2] the target is T1, Glucocorticoid receptor (Homo sapiens). The experiment in a line: Inhibition of glucocorticoid receptor-glucocorticoid complex transfected in rat R1 cells assessed as down-regulation of TPA-responsive element proinflammatory gene expression at 10 uM after 24 hrs by beta-galactosidase assay.
The next data set has as its target T2, Glucocorticoid receptor (Homo sapiens, UniProt P04150).
T2 sequence (P04150 whole entry): T1 sequence (whole entry)
Description: Inhibition of glucocorticoid receptor-glucocorticoid complex transfected in rat R1 cells assessed as down-regulation of TPA-responsive element proinflammatory gene expression after 24 hrs by beta-galactosidase assay.

The subject of the next data set is R1. Description: Cytotoxicity against rat R1 cells at 100 uM after 24 hrs by neutral red assay. Particulars: r1, 24 h.

On to `C=C1c2[nH]c3ccccc3c2CN2CC[C@H]1/C(=C\C)C2`, for which, in data set [1], the Activity amounted to 54%. Regarding `C=C[C@H]1[C@H](O[C@H]2O[C@H](CO)[C@@H](O)[C@H](O)[C@H]2O)OC=C(C(=O)OC)[C@H]1Cc1nc(C(=O)O)cc2c1[nH]c1ccccc12`, the Activity in data set [1] is 30%. As to `CN1c2ccccc2[C@]23CCN4C=C(C(=O)CO)[C@H](C[C@H]42)C[C@H]13`, the outcome in data set [2] was inactive.

Take `Cc1c2ccncc2c(C)c2c1[nH]c1ccccc12` [ELLIPTECINE]: the IC50 at Glucocorticoid receptor came to 90 µM. In the data set on R1, the Activity result is given as “Non-toxic”. Take `CC(=O)C1=CN2CC[C@]34c5ccccc5N(C)[C@H]3C[C@H]1C[C@H]24`: the outcome in data set [2] was inactive. On to `COc1ccc2[nH]c3c(C)c4ccncc4c(C)c3c2c1`, for which, at Glucocorticoid receptor, the IC50 is 90 µM. For the same compound, the Activity entry in the data set on R1 is given as “Non-toxic”.

The record behind these values is ChEMBL document CHEMBL1157381, “Alkaloids from the Australian rainforest tree Ochrosia moorei” (J Nat Prod, 2008).
